From patent publication US8309558B2, “Compounds for the treatment of hepatitis C” (Bristol-Myers Squibb Company, priority 2008, dated 2012)
Like-named read-outs stand apart in the source and are kept apart here.

Legend:
[1] = test system: HCV replicon cells; test: HCV replicon FRET / luciferase assay (96-well plates); type: cell-based; settings: Hepatitis C virus
From the text: FRET Assay Preparation. To perform the HCV FRET screening assay, 96-well cell culture plates were used. The FRET peptide (Anaspec, Inc.) (Taliani et al., Anal. Biochem. 1996, 240, 60-67) contains a fluorescence donor, EDANS, near one end of the peptide and an acceptor, DABCYL, near the other end. The fluorescence of the peptide is quenched by […] resonance energy transfer (RET) between the donor and the acceptor, but as the NS3 protease cleaves the peptide the products are released from RET quenching and the fluorescence of the donor becomes apparent. The assay reagent was made as follows: 5× cell Luciferase cell culture lysis reagent from Promega (#E153A) diluted to 1× with dH2O, NaCl added to 150 mM final, the FRET peptide diluted to 20 μM final from a 2 mM stock.
To prepare plates, HCV replicon cells, with or without a Renilla luciferase reporter gene, were trypsinized and placed into each well of a 96-well plate with titrated test compounds added in columns 3 through 12; columns 1 and 2 contained a control compound (HCV protease inhibitor), and the bottom row contained cells without compound. The plates were then placed in a CO2 incubator at 37° C.
Assays. Subsequent to addition of the test compounds described above (FRET Assay Preparation), at various times the plate was removed and Alamar blue solution (Trek Diagnostics, #00-100) was added per well as a measure of cellular toxicity. After reading in a Cytoflour 4000 instrument (PE Biosystems), plates were rinsed with PBS and then used for FRET assay by the addition of 30 ul of the FRET peptide assay reagent described above (FRET Assay Preparation) per well. The plate was then placed into the Cytoflour 4000 instrument which had been set to 340 excite/490 emission, automatic mode for 20 cycles and the plate read in a kinetic mode. Typically, the signal to noise using an endpoint analysis after the reads was at least three-fold. Alternatively, after Alamar blue reading, plates were rinsed with PBS, 50 ul of DMEM (high glucose) without phenol red was added and plates were then used for luciferase assay using the Promega Dual-Glo Luciferase Assay System.
Compound analysis was determined by quantification of the relative HCV replicon inhibition and the relative cytotoxicity values. To calculate cytoxicity values, the average Alamar Blue fluorescence signals from the control wells were set as 100% non-toxic. The individual signals in each of the compound test wells were then divided by the average control signal and multiplied by 100% to determine […]. To calculate the HCV replicon inhibition values, an average background value was obtained from the two wells containing the highest amount of HCV protease inhibitor at the end of the assay period. These numbers were similar to those obtained from naïve Huh-7 cells.
The background numbers were then subtracted from the average signal obtained from the control wells and this number was used as 100% activity. The individual signals in each of the compound test wells were then divided by the averaged control values after background subtraction and multiplied by 100% to determine percent activity. EC50 values for a protease inhibitor titration were calculated as the concentration which caused a 50% reduction in FRET or luciferase activity. The two numbers generated for the compound plate, percent cytoxicity and percent activity were used to determine compounds of interest for further analysis.

[2] = molecular target: T1, HCV NS5B RdRp genotype 1b (Hepatitis C virus genotype 1b, UniProt Q9WMX2); test: Standard HCV NS5B RdRp enzyme assay; type: biochemical
T1 construct: The protein was expressed with an 18 amino acid C-terminal truncation to enhance the solubility; made in house; host or cells: E. coli BL21(DE3), pET21a vector
T1 sequence (Q9WMX2 2420-2992): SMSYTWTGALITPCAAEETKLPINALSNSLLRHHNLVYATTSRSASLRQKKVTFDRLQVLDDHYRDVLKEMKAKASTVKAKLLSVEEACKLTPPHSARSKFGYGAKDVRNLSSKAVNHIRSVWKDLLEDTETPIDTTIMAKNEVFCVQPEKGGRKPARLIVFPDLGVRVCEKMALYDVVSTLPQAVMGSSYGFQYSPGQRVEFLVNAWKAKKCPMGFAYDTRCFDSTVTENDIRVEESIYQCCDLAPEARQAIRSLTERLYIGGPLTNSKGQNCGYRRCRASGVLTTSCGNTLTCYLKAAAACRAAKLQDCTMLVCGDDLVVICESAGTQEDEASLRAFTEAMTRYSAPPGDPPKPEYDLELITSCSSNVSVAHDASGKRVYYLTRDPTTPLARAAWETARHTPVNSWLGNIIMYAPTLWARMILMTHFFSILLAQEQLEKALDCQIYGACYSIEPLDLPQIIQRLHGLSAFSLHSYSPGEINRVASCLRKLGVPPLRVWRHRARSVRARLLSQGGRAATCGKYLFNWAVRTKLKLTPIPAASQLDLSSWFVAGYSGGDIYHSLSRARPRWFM
Description: HCV NS5B RdRp cloning, expression, and purification. The cDNA encoding the NS5B protein of HCV, genotype 1b, was cloned into the pET21a expression vector. The protein was expressed with an 18 amino acid C-terminal truncation to enhance the solubility. The E. coli competent cell line BL21(DE3) was used for expression of the protein. Cultures were grown at 37° C. for ˜4 hours until the cultures reached an optical density of 2.0 at 600 nm. The cultures were cooled to 20° C. and induced with 1 mM IPTG. Fresh ampicillin was added to a final concentration of 50 μg/ml and the cells were grown overnight at 20° C.
Cell pellets (3 L) were lysed for purification to yield 15-24 mgs of purified NS5B. The lysis buffer consisted of 20 mM Tris-HCl, pH 7.4, 500 mM NaCl, 0.5% triton X-100, 1 mM DTT, 1 mM EDTA, 20% glycerol, 0.5 mg/ml lysozyme, 10 mM MgCl2, 15 ug/ml deoxyribonuclease I, and Complete TM protease inhibitor tablets (Roche). After addition of the lysis buffer, frozen cell pellets were resuspended using a tissue homogenizer. To reduce the viscosity of the sample, aliquots of the lysate were sonicated on ice using a microtip attached to a Branson sonicator. The sonicated lysate was centrifuged at 100,000×g for 1 hr at 4° C. and filtered through a 0.2 μm filter unit (Corning).
The protein was purified using three sequential chromatography steps: Heparin sepharose CL-6B, polyU sepharose 4B, and Hitrap SP sepharose (Pharmacia). The chromatography buffers were identical to the lysis buffer but contained no lysozyme, deoxyribonuclease I, MgC12 or protease inhibitor and the NaCl concentration of the buffer was adjusted according to the requirements for charging the protein onto the column. Each column was eluted with a NaCl gradient which varied in length from 5-50 column volumes depending on the column type. After the final chromatography step, the resulting purity of the enzyme is >90% based on SDS-PAGE analysis. The enzyme was aliquoted and stored at −80° C.
Standard HCV NS5B RdRp enzyme assay. HCV RdRp genotype 1b assays were run in a final volume of 60 μl in 96 well plates (Costar 3912). The assay buffer composed of 20 mM Hepes, pH 7.5, 2.5 mM KCl, 2.5 mM MgCl2, 1 mM DTT, 1.6 U RNAse inhibitor (Promega N2515), 0.1 mg/ml BSA (Promega R3961), and 2% glycerol. All compounds were serially diluted (3-fold) in DMSO and diluted further in water such that the final concentration of DMSO in the assay was 2%. HCV RdRp genotype 1b enzyme was used at a final concentration of 28 nM. A polyA template was used at 6 nM, and a biotinylated oligo-dT12 primer was used at 180 nM final concentration. Template was obtained commercially (Amersham 27-4110). Biotinylated primer was prepared by Sigma Genosys. 3H-UTP was used at 0.6 μCi (0.29 μM total UTP). Reactions were initiated by the addition of enzyme, incubated at 30° C. for 60 min, and stopped by adding 25 μl of 50 mM EDTA containing SPA beads (4 μg/μl, Amersham RPNQ 0007). Plates were read on a Packard Top Count NXT after >1 hr incubation at room temperature.
IC50 values for compounds were determined using seven different [I]. IC50 values were calculated from the inhibition using the formula y=A+((B−A)/(1+((C/x)^D))).

[3] = Table 1a, HCV replicon, read-out: EC50
[4] = Table 1a, HCV NS5B RdRp genotype 1b, read-out: IC50
[5] = Table 1b, HCV NS5B RdRp genotype 1b, read-out: IC50

Row | SMILES | EC50 [1, 3] [nM] | IC50 [2, 4] [nM] | IC50 [2, 5] [nM] | also measured
1 | CNC(=O)c1c(-c2ccc(F)cc2)oc2ccc(-c3cccc(C(=O)NCC(C)C)c3)cc12 | < 250 | < 250 | – | –
2 | CCCNC(=O)c1cccc(-c2ccc3oc(-c4ccc(F)cc4)c(C(=O)NC)c3c2)c1 | < 250 | < 250 | – | –
3 | CNC(=O)c1c(-c2ccc(F)cc2)oc2ccc(-c3cccc(C(=O)NC(C)(C)C(=O)OC)c3)cc12 | < 250 | < 250 | – | –
4 | CNC(=O)c1c(-c2ccc(F)cc2)oc2ccc(-c3cccc(C(=O)N[C@H]4C[C@@H]4c4ccccc4)c3)cc12 | < 250 | > 400 | – | –
5 | CNC(=O)c1c(-c2ccc(F)cc2)oc2ccc(-c3cccc(C(=O)N[C@@H](C)c4cccc(OC)c4)c3)cc12 | < 250 | < 250 | – | –
6 | CNC(=O)c1c(-c2ccc(F)cc2)oc2ccc(-c3cc(C(=O)NCC(C)C)ccc3O)cc12 | < 250 | < 250 | – | –
7 | C#CC(C)(C)NC(=O)c1cccc(-c2ccc3oc(-c4ccc(F)cc4)c(C(=O)NC)c3c2)c1 | < 250 | < 250 | – | –
8 | CNC(=O)c1c(-c2ccc(F)cc2)oc2ccc(-c3cccc(C(=O)NC(C)(C)CO)c3)cc12 | < 250 | < 250 | – | –
9 | CNC(=O)c1c(-c2ccc(F)cc2)oc2ccc(-c3cccc(C(=O)NC(C)(C)C(F)(F)F)c3)cc12 | < 250 | < 250 | – | –
10 | CNC(=O)c1c(-c2ccc(F)cc2)oc2ccc(-c3cccc(C(=O)NC(C)(C)CC(C)(C)C)c3)cc12 | < 250 | 250 to 1000 | – | –
11 | CCC(C)(C)NC(=O)c1cccc(-c2ccc3oc(-c4ccc(F)cc4)c(C(=O)NC)c3c2)c1 | < 250 | < 250 | – | –
12 | CNC(=O)c1c(-c2ccc(F)cc2)oc2ccc(-c3cccc(C(=O)NC4(c5ccc(F)cc5)CC4)c3)cc12 | < 250 | < 250 | – | –
13 | CNC(=O)c1c(-c2ccc(F)cc2)oc2ccc(-c3cccc(C(=O)NC4(c5ccccn5)CC4)c3)cc12 | < 250 | < 250 | – | –
14 | CNC(=O)c1c(-c2ccc(F)cc2)oc2ccc(-c3cccc(C(=O)NC(C)(C)Cc4ccc(F)cc4)c3)cc12 | < 250 | 250 to 1000 | – | –
15 | CNC(=O)c1c(-c2ccc(F)cc2)oc2ccc(-c3cccc(C(=O)NC(C)(C)c4ccc(OC)cc4)c3)cc12 | < 250 | < 250 | – | –
16 | CNC(=O)c1c(-c2ccc(F)cc2)oc2ccc(-c3ccc(-c4ccccc4)c(C(=O)NC(C)(C)c4ccccc4)c3)cc12 | < 250 | < 250 | – | –
17 | CNC(=O)c1c(-c2ccc(F)cc2)oc2cc([N+](=O)[O-])c(-c3cccc(C(=O)NC(C)(C)c4ccccc4)c3)cc12 | < 250 | < 250 | – | –

Row | SMILES | EC50 [1, 3] [nM] | IC50 [2, 4] [nM] | IC50 [2, 5] [nM] | also measured
18 | CNC(=O)c1c(-c2ccc(F)cc2)oc2ccc(-c3cccc(C(=O)N4C5CCC4CN(C)C5)c3)cc12 | – | – | – | EC50 [1]: 1000 to 10000 nM; IC50 [2]: 1000 to 10000 nM
19 | CNC(=O)c1c(-c2ccc(F)cc2)oc2ccc(-c3cccc(C(=O)NC4CN5CCC4CC5)c3)cc12 (stereo not shown) | – | – | – | EC50 [1]: 1000 to 10000 nM; IC50 [2]: 1000 to 10000 nM
20 | CCOC(=O)c1[nH]c(-c2cccc(-c3ccc4oc(-c5ccc(F)cc5)c(C(=O)NC)c4c3)c2)nc1C | – | – | < 250 | –
21 | CNC(=O)c1c(-c2ccc(F)cc2)oc2cc(NS(C)(=O)=O)c(/C=C/C(=O)NC(C)(C)c3ccccc3)cc12 | – | – | 1000 to 10000 | –
22 | CNC(=O)c1c(-c2ccc(F)cc2)oc2cc(N(CCO)S(C)(=O)=O)c(/C=C/C(=O)NC(C)(C)c3ccccc3)cc12 | – | – | < 250 | –
23 | CNC(=O)c1c(-c2ccc(F)cc2)oc2ccc(-c3ccc(-c4ccnc(C)c4)c(C(=O)NCC(C)C)c3)cc12 | – | – | < 250 | –
24 | CNC(=O)c1c(-c2ccc(F)cc2)oc2ccc(-c3ccc(-c4cccc(N)c4)c(C(=O)NCC(C)C)c3)cc12 | – | – | < 250 | –
25 | CNC(=O)c1c(-c2ccc(F)cc2)oc2ccc(-c3ccc(-c4cncnc4)c(C(=O)NCC(C)C)c3)cc12 | – | – | < 250 | –
26 | CNC(=O)c1c(-c2ccc(F)cc2)oc2ccc(-c3ccc(-c4c[nH]c(=O)[nH]c4=O)c(C(=O)NCC(C)C)c3)cc12 | – | – | < 250 | –
27 | CNC(=O)c1c(-c2ccc(F)cc2)oc2ccc(-c3ccc(-c4cncc(OC)c4)c(C(=O)NCC(C)C)c3)cc12 | – | – | 250 to 1000 | –
28 | CNC(=O)c1c(-c2ccc(F)cc2)oc2ccc(-c3ccc(-c4cnc(N)nc4)c(C(=O)NCC(C)C)c3)cc12 | – | – | < 250 | –
29 | CNC(=O)c1c(-c2ccc(F)cc2)oc2ccc(-c3ccc(-c4cncc(C)c4)c(C(=O)NCC(C)C)c3)cc12 | – | – | 250 to 1000 | –
30 | CNC(=O)c1c(-c2ccc(F)cc2)oc2ccc(-c3ccc(-c4ccsc4)c(C(=O)NCC(C)C)c3)cc12 | – | – | < 250 | –
31 | CNC(=O)c1c(-c2ccc(F)cc2)oc2ccc(-c3cc(C(=O)NC4(C(=O)OC)CC4)c(O)cc3Cl)cc12 | – | – | 250 to 1000 | –
32 | CNC(=O)c1c(-c2ccc(F)cc2)oc2ccc(-c3cc(C(=O)NC4(C(=O)O)CC4)c(O)cc3Cl)cc12 | – | – | 250 to 1000 | –
33 | CNC(=O)c1c(-c2ccc(F)cc2)oc2ccc(-c3cc(C(=O)NC4(c5cccc(C)n5)CC4)c(OC)cc3C)cc12 | – | – | – | IC50 ([2]; Table 1d (class symbols), HCV NS5B RdRp genotype 1b, read-out: IC50): 1 to 250 nM
